Read-outs that look alike come from different tables or passages of the source.
Assays:
human Nav1.7 = human Nav1.7 (Homo sapiens, UniProt Q15858); assay: FLIPR or FLIPR TETRA sodium dye assay for sodium channel blocking activity; assay type: cell-based
hNav1.7 [1] = target: T1, hNav1.7 (Homo sapiens, UniProt Q15858); conditions: read-out: Nav1.7 Activity (μM) EP assay Ki; affinity for the inactivated state of the channel; hNav1.7 HEK-293 cells
Nav1.8 = Nav1.8 (Homo sapiens, UniProt Q9Y5Y9); conditions: read-out: TTX IC50; cited from earlier work
Nav1.9 = Nav1.9 (Homo sapiens, UniProt Q9UI33); conditions: read-out: TTX IC50; cited from earlier work
Nav1.2 = Nav1.2 (Homo sapiens, UniProt Q99250); conditions: read-out: TTX IC50; cited from earlier work
Nav1.3 = Nav1.3 (Homo sapiens, UniProt Q9NY46); conditions: read-out: TTX IC50; cited from earlier work
Nav1.6 = Nav1.6 (Homo sapiens, UniProt Q9UQD0); conditions: read-out: TTX IC50; cited from earlier work
Nav1.1 = Nav1.1 (Homo sapiens, UniProt P35498); conditions: read-out: TTX IC50; cited from earlier work
hNav1.7 [2] = target: T1, hNav1.7; assay: cell-based
[3] = read-out: Nav1.7 Activity (μM) FLIPR assay IC50
[4] = recombinant HEK293 cells expressing human Nav1.7 alpha subunit, veratridine and scorpion venom as agonists, read-out: Nav1.7 Activity (μM) FLIPR assay IC50

Chain of human Nav1.7 (Q15858 1-1977 isoform Q15858-3): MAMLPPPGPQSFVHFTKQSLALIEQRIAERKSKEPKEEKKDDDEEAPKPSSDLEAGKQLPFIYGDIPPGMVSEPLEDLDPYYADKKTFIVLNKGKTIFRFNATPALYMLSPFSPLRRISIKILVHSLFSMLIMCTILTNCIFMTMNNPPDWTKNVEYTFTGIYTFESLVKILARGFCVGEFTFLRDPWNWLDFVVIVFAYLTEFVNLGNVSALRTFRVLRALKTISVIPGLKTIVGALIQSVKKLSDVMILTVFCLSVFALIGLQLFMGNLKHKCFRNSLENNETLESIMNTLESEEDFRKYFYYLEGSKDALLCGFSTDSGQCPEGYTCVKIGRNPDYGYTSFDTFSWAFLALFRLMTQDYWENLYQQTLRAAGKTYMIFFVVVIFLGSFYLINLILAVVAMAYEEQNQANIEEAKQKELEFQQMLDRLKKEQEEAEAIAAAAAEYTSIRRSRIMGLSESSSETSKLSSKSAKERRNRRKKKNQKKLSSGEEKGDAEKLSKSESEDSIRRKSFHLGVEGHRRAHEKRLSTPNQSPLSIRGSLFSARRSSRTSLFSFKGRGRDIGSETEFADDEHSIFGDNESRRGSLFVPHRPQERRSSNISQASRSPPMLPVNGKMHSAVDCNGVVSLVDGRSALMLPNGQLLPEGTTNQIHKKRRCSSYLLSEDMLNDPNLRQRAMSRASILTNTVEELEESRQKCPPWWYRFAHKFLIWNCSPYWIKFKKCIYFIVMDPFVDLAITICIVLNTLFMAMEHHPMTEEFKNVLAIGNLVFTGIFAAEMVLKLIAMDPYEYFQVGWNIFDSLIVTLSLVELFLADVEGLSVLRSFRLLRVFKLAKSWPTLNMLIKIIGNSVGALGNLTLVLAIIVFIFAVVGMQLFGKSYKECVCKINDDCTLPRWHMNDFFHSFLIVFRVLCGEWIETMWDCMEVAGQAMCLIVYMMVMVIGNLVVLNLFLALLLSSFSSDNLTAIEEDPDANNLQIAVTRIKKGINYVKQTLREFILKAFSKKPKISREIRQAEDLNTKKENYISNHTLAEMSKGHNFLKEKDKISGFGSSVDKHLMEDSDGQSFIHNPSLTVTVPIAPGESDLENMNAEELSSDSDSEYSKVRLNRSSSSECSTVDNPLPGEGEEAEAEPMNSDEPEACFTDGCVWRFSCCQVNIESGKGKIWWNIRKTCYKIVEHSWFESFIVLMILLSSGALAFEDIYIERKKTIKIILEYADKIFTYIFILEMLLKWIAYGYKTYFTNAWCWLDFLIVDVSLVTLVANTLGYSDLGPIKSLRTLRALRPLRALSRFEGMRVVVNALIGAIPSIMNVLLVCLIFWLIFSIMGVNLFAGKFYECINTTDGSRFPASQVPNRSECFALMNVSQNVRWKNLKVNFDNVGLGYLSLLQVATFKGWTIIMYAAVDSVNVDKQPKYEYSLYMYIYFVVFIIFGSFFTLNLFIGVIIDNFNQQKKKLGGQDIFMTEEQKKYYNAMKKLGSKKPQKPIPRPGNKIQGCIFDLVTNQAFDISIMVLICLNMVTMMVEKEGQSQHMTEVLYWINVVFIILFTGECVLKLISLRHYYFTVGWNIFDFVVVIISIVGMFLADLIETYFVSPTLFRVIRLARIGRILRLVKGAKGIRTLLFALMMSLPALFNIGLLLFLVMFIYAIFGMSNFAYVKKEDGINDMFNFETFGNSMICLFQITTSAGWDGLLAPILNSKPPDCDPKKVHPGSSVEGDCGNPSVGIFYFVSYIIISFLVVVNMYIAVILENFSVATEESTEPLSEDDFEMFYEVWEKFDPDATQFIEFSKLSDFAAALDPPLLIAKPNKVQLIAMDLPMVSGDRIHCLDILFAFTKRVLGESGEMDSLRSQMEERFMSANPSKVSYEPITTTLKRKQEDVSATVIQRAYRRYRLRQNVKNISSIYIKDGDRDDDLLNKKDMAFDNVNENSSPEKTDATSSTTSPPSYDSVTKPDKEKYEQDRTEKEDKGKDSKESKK
T1 sequence (Q15858 1-1977 isoform Q15858-3): as above
Chain of Nav1.8 (Q9Y5Y9 whole entry, looked up): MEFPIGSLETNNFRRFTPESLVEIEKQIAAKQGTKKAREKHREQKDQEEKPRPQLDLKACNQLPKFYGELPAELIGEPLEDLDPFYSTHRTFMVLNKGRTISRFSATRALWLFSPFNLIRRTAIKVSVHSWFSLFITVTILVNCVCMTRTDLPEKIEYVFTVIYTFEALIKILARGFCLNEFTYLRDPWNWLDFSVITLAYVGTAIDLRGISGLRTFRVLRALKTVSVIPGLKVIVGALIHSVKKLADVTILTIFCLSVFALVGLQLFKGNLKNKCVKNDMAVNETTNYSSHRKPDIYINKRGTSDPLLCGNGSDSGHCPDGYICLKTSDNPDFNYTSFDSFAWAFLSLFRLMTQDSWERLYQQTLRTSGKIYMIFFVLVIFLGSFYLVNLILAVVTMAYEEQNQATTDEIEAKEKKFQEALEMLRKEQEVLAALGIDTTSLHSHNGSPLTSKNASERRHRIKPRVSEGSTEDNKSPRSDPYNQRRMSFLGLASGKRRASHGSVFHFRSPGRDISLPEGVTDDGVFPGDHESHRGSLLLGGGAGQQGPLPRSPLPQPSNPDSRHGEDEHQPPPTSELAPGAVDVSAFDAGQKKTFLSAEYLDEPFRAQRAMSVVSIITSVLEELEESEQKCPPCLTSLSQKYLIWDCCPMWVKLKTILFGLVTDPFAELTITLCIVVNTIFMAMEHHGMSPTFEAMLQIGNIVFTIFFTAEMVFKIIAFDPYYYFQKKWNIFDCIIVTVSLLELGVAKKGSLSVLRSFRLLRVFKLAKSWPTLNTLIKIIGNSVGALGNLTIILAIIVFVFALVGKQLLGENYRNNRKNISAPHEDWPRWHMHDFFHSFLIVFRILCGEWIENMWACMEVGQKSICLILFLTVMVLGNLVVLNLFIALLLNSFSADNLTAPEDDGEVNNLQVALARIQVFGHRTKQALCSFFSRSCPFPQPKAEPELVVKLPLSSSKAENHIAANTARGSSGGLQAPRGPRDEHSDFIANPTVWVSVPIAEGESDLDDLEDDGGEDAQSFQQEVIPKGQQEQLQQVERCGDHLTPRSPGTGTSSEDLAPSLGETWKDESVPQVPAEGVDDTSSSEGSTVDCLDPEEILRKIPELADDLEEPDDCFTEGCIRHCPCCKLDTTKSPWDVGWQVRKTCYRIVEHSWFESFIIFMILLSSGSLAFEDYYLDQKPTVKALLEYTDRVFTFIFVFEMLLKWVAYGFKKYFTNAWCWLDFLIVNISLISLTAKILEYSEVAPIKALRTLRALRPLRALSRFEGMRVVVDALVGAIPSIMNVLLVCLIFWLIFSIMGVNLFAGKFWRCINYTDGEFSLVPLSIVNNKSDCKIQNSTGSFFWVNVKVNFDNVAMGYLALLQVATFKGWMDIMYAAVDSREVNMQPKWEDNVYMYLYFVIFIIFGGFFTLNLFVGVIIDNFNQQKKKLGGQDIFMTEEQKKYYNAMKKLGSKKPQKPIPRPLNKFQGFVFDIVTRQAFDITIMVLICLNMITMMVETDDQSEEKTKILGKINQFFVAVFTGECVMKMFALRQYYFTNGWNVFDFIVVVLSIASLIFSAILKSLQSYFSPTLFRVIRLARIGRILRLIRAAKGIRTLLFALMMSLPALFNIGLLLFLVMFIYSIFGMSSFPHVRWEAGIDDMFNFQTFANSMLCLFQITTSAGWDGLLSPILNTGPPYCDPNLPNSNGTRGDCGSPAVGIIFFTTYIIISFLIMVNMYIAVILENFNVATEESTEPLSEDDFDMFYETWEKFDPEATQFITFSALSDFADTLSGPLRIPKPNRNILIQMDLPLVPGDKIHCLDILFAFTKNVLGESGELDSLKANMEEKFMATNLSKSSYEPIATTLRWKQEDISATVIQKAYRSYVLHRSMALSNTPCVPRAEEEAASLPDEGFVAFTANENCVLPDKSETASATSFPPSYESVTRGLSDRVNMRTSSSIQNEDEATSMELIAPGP

For `CN1Cc2cc(-c3cccc([C@H](O)[C@@H](O)C(N)=O)n3)ccc2Oc2ccc(C(F)(F)F)cc21` [Compound 48, (2R,3S)-2,3-dihydroxy-3-(6-(10-methyl-8-(trifluoromethyl)-10,11-dihydrodibenzo[b,f][1,4]oxazepin-2-yl)pyridin-2-yl)propanamide], the IC50 (human Nav1.7; [3]) was 1.05 ± 0.069 µM.

`CC(=O)N1c2ccc(Cl)cc2CCc2cc(-c3cccc(C(N)=O)n3)ccc21` [Compound 42, 6-(5-acetyl-8-chloro-10,11-dihydro-5H-dibenzo[b,f]azepin-2-yl)picolinamide] showed an IC50 (human Nav1.7; [3]) of 7.62 ± 0.797 µM and a Ki (hNav1.7 [1]) of 3.03 ± 1.26 µM.

`CN1c2ccc(Cl)cc2CCc2cc(-c3cccc(C(N)=O)n3)ccc21` [Compound 39, 6-(8-chloro-5-methyl-10,11-dihydro-5H-dibenzo[b,f]azepin-2-yl)picolinamide] showed an IC50 (human Nav1.7; [3]) of 0.842 ± 0.04 µM.

For `NC1=N[C@H](O)[C@H]2[C@H]3O[C@]4(O)O[C@@H]([C@@H](O)[C@@]2(N1)[C@@H]4O)[C@]3(O)CO` [TTX, tetrodotoxin], the IC50 (Nav1.8) is given as 50 µM, the IC50 (Nav1.9) is given as 1000 nM and the IC50 (Nav1.2) is given as 10 nM. The IC50 (Nav1.3) was 15 nM, the IC50 (Nav1.6) was 6 nM and the IC50 (Nav1.1) was 10 nM.

For `CCN1c2ccc(Cl)cc2CCc2cc(-c3cccc(C(N)=O)n3)ccc21` [Compound 41, 6-(8-chloro-5-ethyl-10,11-dihydro-5H-dibenzo[b,f]azepin-2-yl)picolinamide], the IC50 (human Nav1.7) was greater than 20 µM.

For `CN1Cc2cc(-c3cccc([C@H](O)CO)n3)ccc2Oc2ccc(C(F)(F)F)cc21` [Compound 44, (S)-1-(6-(10-methyl-8-(trifluoromethyl)-10,11-dihydrodibenzo[b,f][1,4]oxazepin-2-yl)pyridin-2-yl)ethane-1,2-diol], the IC50 (human Nav1.7; [4]) was 0.373 ± 0.047 µM.

`OC[C@@H](O)c1cccc(-c2ccc3c(c2)CNc2cc(C(F)(F)F)ccc2O3)n1` [Compound 43, (S)-1-(6-(8-(trifluoromethyl)-10,11-dihydrodibenzo[b,f][1,4]oxazepin-2-yl)pyridin-2-yl)ethane-1,2-diol] showed an IC50 (human Nav1.7; [3]) of 2.57 ± 0.059 µM.

Work on `CN1c2ccc(-c3cccc([C@H](O)CO)n3)cc2CCc2cc(C(F)(F)F)ccc21` [Compound 46, (S)-1-(6-(5-methyl-8-(trifluoromethyl)-10,11-dihydro-5H-dibenzo[b,f]azepin-2-yl)pyridin-2-yl)ethane-1,2-diol] yielded an IC50 (human Nav1.7; [3]) of 1.08 ± 0.106 µM and a Ki (hNav1.7 [1]) of 1.03 ± 0.227 µM.

Work on `C[C@H](Nc1cc(C(N)=O)nc(-c2ccc3c(c2)CN(C)c2cc(C(F)(F)F)ccc2O3)n1)C(N)=O` [Compound 47, (S)-6-((1-amino-1-oxopropan-2-yl)amino)-2-(10-methyl-8-(trifluoromethyl)-10,11-dihydrodibenzo[b,f][1,4]oxazepin-2-yl)pyrimidine-4-carboxamide] yielded an IC50 (human Nav1.7; [4]) of 4.79 ± 0.628 µM.

`NC(=O)CN1Cc2cc(-c3cccc([C@H](O)CO)n3)ccc2Oc2ccc(C(F)(F)F)cc21` [Compound 49, (S)-2-(2-(6-(1,2-dihydroxyethyl)pyridin-2-yl)-8-(trifluoromethyl)dibenzo-[b,f][1,4]oxazepin-10(11H)-yl)acetamide] gave a Ki (hNav1.7 [2]) of 1800 ± 794 nM.

`CN1Cc2cc(C(F)(F)F)ccc2Oc2ccc(-c3cccc([C@H](O)CO)n3)cc21` [Compound 45, (S)-1-(6-(10-methyl-2-(trifluoromethyl)-10,11-dihydrodibenzo[b,f][1,4]oxazepin-8-yl)pyridin-2-yl)ethane-1,2-diol] showed an IC50 (human Nav1.7; [3]) of 1.03 ± 0.067 µM.

For `NC(=O)c1cccc(-c2ccc3c(c2)CCc2cc(Cl)ccc2N3)n1` [Compound 40, 6-(8-chloro-10,11-dihydro-5H-dibenzo[b,f]azepin-2-yl)picolinamide], the IC50 (human Nav1.7; [3]) was 1.96 ± 0.036 µM and the Ki (hNav1.7 [1]) was 0.648 ± 0.123 µM.

— patent US9695144B2, “Dibenzazepine derivatives and use thereof” (Purdue Pharma L.P., priority 2013, dated 2017)
